Measurements reported in US6399377B1, “Use of anti-sense sequences to increase responsiveness to gene amplification” (priority 1999, dated 2002).

System: SBP13-30 CHO cells
Assay: Acquired sensitivity to MTX of plasmid-transfected cells, crystal violet staining
Assay type: cell-based, chinese hamster
Settings: 9 μM MTX, 0 μg DNA (non-transfected cells)
Protocol: In order to assess the level of expression of the anti-sense DHFR sequence and whether its expression effectively blocks DHFR+ expression i.e. renders the cells more responsive/sensitive to MTX treatment, SBP13-30 CHO cells subjected to transfections with three different plasmid concentrations of adHFR2/Neo 0 (control), 100 and 500 μg plasmid DNA, were grown in the absence (controls) or in the presence of MTX (9 μM). Equal amounts of cells from each of the transfections were plated onto duplicate sets of Petri dishes containing standard CHO culture medium, one set receiving cells treated with MTX and the other set receiving untreated cells. When the cells in the dishes without MTX approached confluent growth, the experiment was terminated and the surviving cells were visualized by staining with crystal violet.
As expected, with 0 μM MTX, heavy staining was observed. The staining was moderate-to-heavy in the 9 μM MTX/0 μg DNA dish. […] Cells transfected with high amounts of plasmid (500 μg plasmid DNA/dish) are more sensitive to MTX than cells transfected with lower amounts of plasmid (100 μg plasmid DNA/dish) or the non-transfected control cells (0 μg plasmid/dish). Thus, it is clear that the anti-sense DHFR plasmid successfully transfected the CHO cells and was expressed in these cells. […] In other words, the greater the DHFR^+ inhibition, the greater the MTX toxicity.

CN(Cc1cnc2nc(N)nc(N)c2n1)c1ccc(C(=O)N[C@@H](CCC(=O)O)C(=O)O)cc1 [MTX, methotrexate]
crystal violet staining of surviving cells: moderate-to-heavy
